{"source": "patent US11478498B2", "about": "“Topical pharmaceutical formulations containing a low concentration of benzoyl peroxide in suspension in water and a water-miscible organic solvent” (Dow Pharmaceutical Sciences, Inc., priority 2008, dated 2022)", "assay": "Solubility of benzoyl peroxide in organic solvents by HPLC analysis", "type": "physicochemical", "conditions": "room temperature", "excerpt": "An example of a preferred organic solvent for the formulation of the invention is a polyol, also known as a polyhydric alcohol. Representative examples of polyols include glycols and sugar alcohols. Preferred polyols for the formulation of the invention include polyether glycols, such as ethoxydiglycol, and propylene glycol. A preferred water-miscible organic solvent is propylene glycol. The inventors have determined by HPLC analysis that benzoyl peroxide is soluble in 100% propylene glycol at room temperature at a level between 0.2% and 0.3% w/w. A second preferred organic solvent is ethoxydiglycol, such as sold under the tradename Transcutol® (Gattefosse, Saint-Priest, France). It has been determined by HPLC analysis that benzoyl peroxide is soluble in ethoxydiglycol at room temperature at a level of about 4.9%. Another preferred organic solvent is polyethylene glycol, such as PEG 400.", "data": [{"smiles": "O=C(OOC(=O)c1ccccc1)c1ccccc1", "note": "[benzoyl peroxide]", "values": [{"measurement": "Solubility of benzoyl peroxide in ethoxydiglycol", "value": "about 4.9%"}]}]}
